Data on 7 compounds can be found in patent publication US20240269304A1, “BCL-XL INHIBITOR ANTIBODY-DRUG CONJUGATES AND METHODS OF USE THEREOF” (Novartis AG, priority 2020, published 2024).

One data set concerns H1650 cells. Nature of the data set: CellTiterGlo (CTG) cell viability, 3D, 120 h, H1650 (Example 8). In kind it is cell-based, human. Conditions: Homo sapiens, NCI-H1650, H1650 3D.
The test system of another data set is HCC1569 cells. The experiment in a line: CellTiterGlo (CTG) cell viability, 120 h, HCC1569, single agent or with 10 nM Paclitaxel. Format: cell-based. The method, then: HCC1569 cells were cultivated in RPMI supplemented with 10% heat inactivated fetal bovine serum, penicillin (100 IU/ml), streptomycin (100 μg/ml) and L-glutamine (2 mM). Cell lines were cultured at 37° C. in a humidified atmosphere containing 5% 002. […] Effects of ADCs on cell viability were assessed after 5 days of incubation at 37° C./5% CO2 by quantification of cellular ATP levels using CellTiterGlo at 75 μL reagent/well. All the conditions were tested in triplicates. Luminescence was quantified on a multipurpose plate reader. IC50s were calculated using standard four-parametric curve fitting.
Background: ATP-based viability assays read luminescence as a measure of living cells.

Data set [1] relates to H1650 human non-small cell lung carcinoma (NSCLC) model. The experiment in a line: In vivo efficacy of EGFR1-Bcl-xL inhibitor ADCs with different linker payloads in combination with docetaxel, H1650 xenografts (Example 16). Set-up: species or system female SCID mice. Conditions: 7.5 mg/kg i.v. once + docetaxel 7.5 mg/kg iv 24 h later; for ΔTumor volume (mm^3) D21: mean±SEM; for Statistics 21 vs EGFR-L109A-P1 / Statistics D21 vs Vehicle gp / Statistics D46 vs EGFR-L109A-P1: one way ANOVA post hoc Tukey. The method, then:
Tumor growth was monitored regularly post cell inoculation and animals were randomized into treatment groups (n=7) with a mean tumor volume of about 150 mm^3. […] The ADCs were administered intravenously (i.v.) once at the start of treatment at 7.5 mg/kg in combination with 7.5 mg/kg docetaxel (Zentiva: 1 ml/20 mg), which was administered i.v. once 24 h after the ADCs. Doses were adjusted to individual mouse body weights.
As a measure of efficacy, the %T/C value was calculated on day 21 according to:
(Δtumor volume treated/Δtumor volume control)*100 Tumor regression was calculated according to: […]
Where Δtumor volumes represent the mean tumor volume on the evaluation day minus the mean tumor volume at the start of the experiment.

Data set [2] can be described thus: ADC stability study: % aggregates by SEC after incubation at 37° C. for 168 h. In kind it is physicochemical. The procedure:
Size Exclusion Chromatography: Size exclusion chromatography (SEC) was performed for quality control of each ADCs by measuring monomer percentage of the conjugate. The analysis was performed on analytical column Superdex 200 Increase 5/150 GL (GE Healthcare, 28990945) in isocratic conditions 100% PBS pH7.4 (Sigma Life Science, P3813, 10PAK), flow 0.45 mI/min for 12 minutes. The % aggregate fraction of the conjugate sample was quantified based on the peak area absorbance at 280 nm. Its calculation was based on the ratio between the high molecular weight eluent at 280 nm divided by the sum of peak area absorbance at the same wavelength of the high molecular weight and monomeric eluents multiplied by 100.
Characterization of the exemplary ADCs is summarized in Table 13 (coupling, LC-MS method, OAR, aggregation status, ADO stability and yield). The average OAR values were determined using the above LC-MS methods and the percentage of aggregates was measured by size exclusion chromatography (SEC) during the quality control of the ADO and after the stability study (incubation at 37° C. for 168 h).

Setting [3] is: experiment n1, read-out: H1650 3D CTG IC50 n1.
The mark [4] stands for this setting: experiment n2, read-out: H1650 3D CTG IC50 n2.
The mark [5] stands for this setting: mean of n1 and n2, read-out: H1650 3D CTG IC50 Mean of n1 and n2.
Where [6] appears, read: Homo sapiens, HCC1569, read-out: HCC1569 CTG 120 h IC50 nM + Paclitaxel 10 nM Mean N1 and N2, in the presence of 10 nM Paclitaxel, mean.
Setting [7] is: Homo sapiens, HCC1569, read-out: HCC1569 CTG 120 h IC50 nM + Paclitaxel 10 nM N1, in the presence of 10 nM Paclitaxel, N1.
Setting [8] is: Homo sapiens, HCC1569, read-out: HCC1569 CTG 120 h IC50 nM + Paclitaxel 10 nM N2, in the presence of 10 nM Paclitaxel, N2.
Setting [9] is: Homo sapiens, HCC1569, read-out: HCC1569 CTG 120 h IC50 nM Mean N1 and N2, single agent, mean.
The mark [10] stands for this setting: Homo sapiens, HCC1569, read-out: HCC1569 CTG 120 h IC50 nM N1, single agent, N1.
The mark [11] stands for this setting: Homo sapiens, HCC1569, read-out: HCC1569 CTG 120 h IC50 nM N2, single agent, N2.

SMILES strings stand for the structures. Read-outs that look alike come from different tables or passages of the source.

Take `Cc1cc(N(C)c2nc(C(=O)O)c(CCCOc3ccc(C#CCN(C)C)cc3F)s2)nnc1Nc1nc2ccccc2s1` [P2, 2-[[6-(1,3-benzothiazol-2-ylamino)-5-methyl-pyridazin-3-yl]-methyl-amino]-5-[3-[4-[3-(dimethylamino)prop-1-ynyl]-2-fluoro-phenoxy]propyl]thiazole-4-carboxylic acid]: the 50% inhibitory concentration (IC50) in the data set with H1650 cells (setting [3]) amounted to 1.06 nM; in the data set on H1650 cells (setting [4]), 1.9 nM; in the data set with H1650 cells (setting [5]) it was 1.48 nM; in the data set on HCC1569 cells (setting [6]), 0.111 nM; with HCC1569 cells (setting [7]), 0.126 nM; in the data set on HCC1569 cells (setting [8]), 0.096 nM. Also, the IC50 in the data set on HCC1569 cells (setting [9]) is 12.4 nM; in the data set on HCC1569 cells (setting [10]) it was 13.1 nM; in the data set on HCC1569 cells (setting [11]), 11.7 nM.

For `Cc1c(Nc2nc3ccccc3s2)nnc2c1CCCN2c1ccc(-c2cnn(CC34CC5(C)CC(C)(C3)CC(OCCN(CC[C@H](O)CO)C(=O)OCc3ccc(NC(=O)[C@H](CCCNC(N)=O)NC(=O)[C@@H](NC(=O)CCOCCN6C(=O)CC(C)C6=O)C(C)C)cc3CN(C)C(=O)CCOCCOCCOCCOCCOCCOCCOCCOCCOCCOCCOCCOCCOCCOCCOCCOCCOCCOCCOCCOCCOCCOCCOCCOCCOCCC(=O)O)(C5)C4)c2C)c(C(=O)O)n1` (mixture of isomers) [EGFR1-L11C-P19], in data set [1] (day 21), the “Regression (%)” value is −35% and the “ΔTumor volume (mm^3) D21” value is on record as −52 ± 21 mm^3. In data set [1], the “Statistics 21 vs EGFR-L109A-P1” value was “P < 0.05”, the “Statistics D21 vs Vehicle gp” value is listed as “P < 0.05” and the “Statistics D46 vs EGFR-L109A-P1” value is “P < 0.05”.

As for `CNCC#Cc1ccc(OCCCc2sc(N(C)c3cc(C)c(Nc4nc5ccccc5s4)nn3)nc2C(=O)O)c(F)c1` [P7, 2-[[6-(1,3-benzothiazol-2-ylamino)-5-methyl-pyridazin-3-yl]-methyl-amino]-5-[3-[2-fluoro-4-[3-(methylamino)prop-1-ynyl]phenoxy]propyl]thiazole-4-carboxylic acid], the IC50 is 7.5 nM in the data set with H1650 cells (setting [3]); 4.7 nM in the data set with H1650 cells (setting [4]); 6.1 nM with H1650 cells (setting [5]); 0.436 nM in the data set with HCC1569 cells (setting [6]); 0.443 nM with HCC1569 cells (setting [7]); 0.429 nM in the data set with HCC1569 cells (setting [8]). Further, the IC50 with HCC1569 cells (setting [9]) worked out at 33 nM; in the data set with HCC1569 cells (setting [10]) it was 40.3 nM; in the data set on HCC1569 cells (setting [11]) it was 25.6 nM.

Turning to `Cc1c(Nc2nc3ccccc3s2)nnc2c1CCCN2c1ccc(-c2cnn(CC34CC5(C)CC(C)(C3)CC(OCC[N+](C)(C)Cc3ccc(NC(=O)[C@H](CCCNC(N)=O)NC(=O)[C@@H](NC(=O)CCOCCN6C(=O)CC(C)C6=O)C(C)C)cc3CN(C)C(=O)CCOCCOCCOCCOCCOCCOCCOCCOCCOCCOCCOCCOCCOCCOCCOCCOCCOCCOCCOCCOCCOCCOCCOCCOCCOCCC(=O)O)(C5)C4)c2C)c(C(=O)O)n1` (stereo partly drawn) [EGFR1-L11A-P27], in data set [1] (day 21), the “T/C (%) D21” value is on record as 3% and the “ΔTumor volume (mm^3) D21” value is 14 ± 18 mm^3. The “Statistics D21 vs Vehicle gp” value in data set [1] is on record as “P < 0.05”.

Consider `Cc1c(Nc2nc3ccccc3s2)nnc2c1CCCN2c1ccc(-c2cnn(CC34CC5(C)CC(C)(C3)CC(OCCN(CCCO)C(=O)OCc3ccc(NC(=O)[C@H](CCCNC(N)=O)NC(=O)[C@@H](NC(=O)CCOCCN6C(=O)CC(C)C6=O)C(C)C)cc3CN(C)C(=O)CCOCCOCCOCCOCCOCCOCCOCCOCCOCCOCCOCCOCCOCCOCCOCCOCCOCCOCCOCCOCCOCCOCCOCCOCCOCCC(=O)O)(C5)C4)c2C)c(C(=O)O)n1` (stereo partly drawn) [EGFR1-L11C-P25], for which, in data set [1] (day 21), the “Regression (%)” value is reported as −50% and the “ΔTumor volume (mm^3) D21” value is listed as −76 ± 17 mm^3. Besides, in data set [1], the “Statistics 21 vs EGFR-L109A-P1” value is on record as “P < 0.05”, the “Statistics D21 vs Vehicle gp” value is given as “P < 0.05” and the “Statistics D46 vs EGFR-L109A-P1” value is listed as “P < 0.05”.

On to `CNCCOCCOCCNC(=O)OC[C@@H]1[C@@H]2CCc3nnn(CCOCCOCCOCC(=O)N[C@H](C(=O)N[C@@H](CCCNC(N)=O)C(=O)Nc4ccc(COC(=O)N(C)CC#Cc5ccc(OCCCc6sc(N(C)c7cc(C)c(Nc8nc9ccccc9s8)nn7)nc6C(=O)O)c(F)c5)cc4)C(C)C)c3CC[C@@H]21` [Ab T - L23C-P7], for which the “Stab w1 +37° C. % Agg (by SEC)” value in data set [2] is 4%. Further, the IC50 in the data set with HCC1569 cells (read-out: HCC1569 CTG 120 h IC50 nM + Paclitaxel 10 nM Mean N1 and N2, in the presence of 10 nM Paclitaxel, mean) was 0.213 nM; in the data set on HCC1569 cells (read-out: HCC1569 CTG 120 h IC50 nM + Paclitaxel 10 nM N1, in the presence of 10 nM Paclitaxel, N1), 0.287 nM; in the data set with HCC1569 cells (read-out: HCC1569 CTG 120 h IC50 nM + Paclitaxel 10 nM N2, in the presence of 10 nM Paclitaxel, N2), 0.139 nM; in the data set on HCC1569 cells (read-out: HCC1569 CTG 120 h IC50 nM Mean N1 and N2, single agent, mean), > 300 nM; with HCC1569 cells (read-out: HCC1569 CTG 120 h IC50 nM N1, single agent, N1), > 300 nM; in the data set with HCC1569 cells (read-out: HCC1569 CTG 120 h IC50 nM N2, single agent, N2) it was > 300 nM.

As to `Cc1c(Nc2nc3ccccc3s2)nnc2c1CCCN2c1ccc(-c2cnn(CC34CC5(C)CC(C)(C3)CC(OCC[N+]3(Cc6ccc(NC(=O)[C@H](CCCNC(N)=O)NC(=O)[C@@H](NC(=O)CCOCCN7C(=O)CC(C)C7=O)C(C)C)cc6CN(C)C(=O)CCOCCOCCOCCOCCOCCOCCOCCOCCOCCOCCOCCOCCOCCOCCOCCOCCOCCOCCOCCOCCOCCOCCOCCOCCOCCC(=O)O)CCCC3)(C5)C4)c2C)c(C(=O)O)n1` (stereo partly drawn) [EGFR1-L11A-P21], in data set [1] (day 21), the “Regression (%)” value was −8% and the “ΔTumor volume (mm^3) D21” value is recorded as −16 ± 20 mm^3. In addition, in data set [1], the “Statistics D21 vs Vehicle gp” value is reported as “P < 0.05” and the “Statistics D46 vs EGFR-L109A-P1” value is reported as “P < 0.05”.

The term IC50 denotes the concentration needed to halve the response being measured.
